{
  "source": "paper PMC8322138",
  "about": "“BRCA2 binding through a cryptic repeated motif to HSF2BP oligomers does not impact meiotic recombination” (Nature Communications, 2021)",
  "molecules": {"B1": {"name": "mouse HSF2BP, endogenous in mES cells (natural protein)", "chain": "MAATVGDGSGTEEACRNMESKEEFVKVRKKDLERLTTEVMQIRDFLPRILNGELLESFQKLKMVEKNLERKEQELEQLIMDREHFKARLETAQADSGREKKEKLALRQQLNEAKQQLLQQAEYCTQMGAVTCTLLWGVSSSEEVVKTILGGDKALKFFNITGQTMESFVKSLDGDVKEVDSDENQFVFALAGIVTNVAAIACGREFLVNSSRVLLDTMLQLLGDLKPGQCTKLKVLMLMSLYNVSINSKGLKYITESPGFIPLLWWLLSDPDAEVCLHTLRLIQSVVLEPDVFSKVASELQSSLPLQRILAMSKSRNSHLQSAAQELLEDLRALDCNV"}, "B2": {"name": "armadillo domain of HSF2BP, from aa 122 to aa 334 (ARM) (domain or fragment, human, UniProt O75031 122-334, looked up)", "chain": "EMGAAACTLLWGVSSSEEVVKAILGGDKALKFFSITGQTMESFVKSLDGDVQELDSDESQFVFALAGIVTNVAAIACGREFLVNSSRVLLDTILQLLGDLKPGQCTKLKVLMLMSLYNVSINLKGLKYISESPGFIPLLWWLLSDPDAEVCLHVLRLVQSVVLEPEVFSKSASEFRSSLPLQRILAMSKSRNPRLQTAAQELLEDLRTLEHNV", "notes": "Free ARM is a dimer (SEC-MALS); four ARM with two F15X in the complex; A selenomethionine-labelled form was used for the deposited crystal structure; also called HSF2BP ARM; H3 (recombinant); source: E. coli BL21 DE3 Rosetta2, purified (HisTrap, TEV cleavage, SEC)"}, "B3": {"name": "FNMR: BRCA2 fragment aa 2252 to aa 2342, recombinant (protein)", "chain": "SLFTCPENEEMVLSNSRIGKRRGEPLILVGEPSIKRNLLNEFDRIIENQEKSLKASKSTPDGTIKDRRLFMHHVSLEPITTVPFRTTKERQ", "modifications": "left off: GB1, C-terminal, cleaved | His6, C-terminal, cleaved", "notes": "BRCA2 fragment aa 2252 to aa 2342, recombinant"}},
  "key": {"HSF2BP FL": {"target": "T1, HSF2BP FL (Homo sapiens, UniProt O75031)", "T1 construct": "Human full-length HSF2BP WT and R200T were expressed; 6xHis-TEV (N, cleaved yes); made in house; host or cells: E. coli BL21 DE3 Rosetta2", "T1 sequence (O75031 1-334)": "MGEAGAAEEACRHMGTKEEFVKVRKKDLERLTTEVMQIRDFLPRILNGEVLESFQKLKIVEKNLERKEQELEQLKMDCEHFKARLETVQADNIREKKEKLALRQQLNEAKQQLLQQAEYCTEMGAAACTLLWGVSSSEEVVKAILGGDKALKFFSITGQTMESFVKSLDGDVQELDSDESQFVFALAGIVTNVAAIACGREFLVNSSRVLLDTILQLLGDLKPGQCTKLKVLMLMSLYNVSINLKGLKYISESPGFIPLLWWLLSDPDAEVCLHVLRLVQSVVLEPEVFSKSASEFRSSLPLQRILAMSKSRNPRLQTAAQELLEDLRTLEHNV", "experiment": "ITC of BRCA2 fragments with full-length HSF2BP", "format": "binding", "conditions": "for n (stoichiometry) / ΔG / −TΔS / ΔH (±error) / affinity (in words): 293 K", "source_text": "(§1) Human full-length HSF2BP WT and R200T were expressed using a pETM11 (6xHis-TEV) expression vector in E. coli BL21 DE3 Rosetta2 cells, and purified as previously reported (Brandsma et al., Cell Rep 2019). The armadillo domain of HSF2BP, from aa 122 to aa 334, which we will further name ARM, was similarly expressed using a pETM11 (6xHis-TEV) expression vector in BL21 DE3 Rosetta2 cells and purified as full-length HSF2BP.\n(§2) Human BRCA2 fragment F0 was expressed using a pET-22b expression vector as a fusion protein comprising BRCA2 from aa 2213 to aa 2342 (including mutation C2332T to avoid oxidation problems), a TEV site, a GB1 and 6xHis tag, in E. coli BL21 DE3 Star cells. The BRCA2 gene was optimized for expression in bacteria and synthesized by Genscript. In addition, smaller BRCA2 fragments were produced using the same strategy: FNMR and F15X corresponding to aa 2252 to aa 2342 and aa 2291 to aa 2343, respectively. The smallest fragment F15X∆12, from aa 2312 to aa 2342, was synthesized by Genecust.\n(§3) ITC experiments were performed using a high-precision VP-ITC instrument (GE Healthcare) at 293 K. To characterize the interactions between HSF2BP and BRCA2 fragments (WT, variants), the proteins were dialyzed against 25 mM Tris pH 7.5, 250 mM NaCl, 5 mM β-mercaptoethanol. The HSF2BP (or ARM domain) was in the sample cell at 10–20 μM and was titrated by BRCA2 fragments at 40–100 μM, using 10 μL injections with 210 s intervals between each injection. The first 2 μL injection was ignored in the final data analysis. The integration of the peaks corresponding to each injection. the correction for the baseline and the fit were performed using the Origin 7.0 software provided by the manufacturer, to obtain the stoichiometry (N), dissociation constant (Kd), and enthalpy of complex formation (ΔH) for each interaction. Two replicates were performed for each experiment."}, "ARM domain of HSF2BP [1]": {"target": "T2, ARM domain of HSF2BP (Homo sapiens, UniProt O75031)", "T2 construct": "The armadillo domain of HSF2BP, from aa 122 to aa 334; 6xHis-TEV (N, cleaved yes); made in house; host or cells: E. coli BL21 DE3 Rosetta2", "T2 sequence (O75031 122-334)": "B2 chain", "experiment": "Analytical gel filtration of ARM with F15XΔ12", "format": "physicochemical", "conditions": "SEC, Superose 6 Increase 10/300, ARM to peptide ratio 1:1.2, pH 7.5", "experimental": "SEC was also used to characterize ARM and ARM bound to F15XΔ12. The ARM domain was loaded on a Superose 6 Increase 10/300 (GE Healthcare) alone (at 2 mg/ml) or bound to F15XΔ12 (at 5 mg/ml, ARM to peptide ratio 1:1.2) in 25 mM Tris-HCl buffer, pH 7.5, 250 mM NaCl, and 5 mM β-mercaptoethanol. The OD values from the elution of ARM alone were multiplied by 2.5 to be compared to the OD values from the elution of ARM bound to F15XΔ12."}, "[2]": {"target": "mouse HSF2BP-GFP (homozygous Hsf2bp-GFP knock-in allele) (mouse (endogenous in mES cells)) (UniProt Q9D4G2)", "experiment": "co-IP; anti-GFP nanobody beads on lysates of Hsf2bp^GFP/GFP mES cells with Brca2 wt, ∆12 or ∆12-14 alleles; BRCA2 blotted, fluorescent secondary antibodies; NETT buffer"}, "[3]": {"target": "mouse BRCA2-GFP ∆12 (exon 12 deleted) (mouse (endogenous in mES cells)) (UniProt P97929)", "sequence (P97929 whole entry, stated change not applied)": "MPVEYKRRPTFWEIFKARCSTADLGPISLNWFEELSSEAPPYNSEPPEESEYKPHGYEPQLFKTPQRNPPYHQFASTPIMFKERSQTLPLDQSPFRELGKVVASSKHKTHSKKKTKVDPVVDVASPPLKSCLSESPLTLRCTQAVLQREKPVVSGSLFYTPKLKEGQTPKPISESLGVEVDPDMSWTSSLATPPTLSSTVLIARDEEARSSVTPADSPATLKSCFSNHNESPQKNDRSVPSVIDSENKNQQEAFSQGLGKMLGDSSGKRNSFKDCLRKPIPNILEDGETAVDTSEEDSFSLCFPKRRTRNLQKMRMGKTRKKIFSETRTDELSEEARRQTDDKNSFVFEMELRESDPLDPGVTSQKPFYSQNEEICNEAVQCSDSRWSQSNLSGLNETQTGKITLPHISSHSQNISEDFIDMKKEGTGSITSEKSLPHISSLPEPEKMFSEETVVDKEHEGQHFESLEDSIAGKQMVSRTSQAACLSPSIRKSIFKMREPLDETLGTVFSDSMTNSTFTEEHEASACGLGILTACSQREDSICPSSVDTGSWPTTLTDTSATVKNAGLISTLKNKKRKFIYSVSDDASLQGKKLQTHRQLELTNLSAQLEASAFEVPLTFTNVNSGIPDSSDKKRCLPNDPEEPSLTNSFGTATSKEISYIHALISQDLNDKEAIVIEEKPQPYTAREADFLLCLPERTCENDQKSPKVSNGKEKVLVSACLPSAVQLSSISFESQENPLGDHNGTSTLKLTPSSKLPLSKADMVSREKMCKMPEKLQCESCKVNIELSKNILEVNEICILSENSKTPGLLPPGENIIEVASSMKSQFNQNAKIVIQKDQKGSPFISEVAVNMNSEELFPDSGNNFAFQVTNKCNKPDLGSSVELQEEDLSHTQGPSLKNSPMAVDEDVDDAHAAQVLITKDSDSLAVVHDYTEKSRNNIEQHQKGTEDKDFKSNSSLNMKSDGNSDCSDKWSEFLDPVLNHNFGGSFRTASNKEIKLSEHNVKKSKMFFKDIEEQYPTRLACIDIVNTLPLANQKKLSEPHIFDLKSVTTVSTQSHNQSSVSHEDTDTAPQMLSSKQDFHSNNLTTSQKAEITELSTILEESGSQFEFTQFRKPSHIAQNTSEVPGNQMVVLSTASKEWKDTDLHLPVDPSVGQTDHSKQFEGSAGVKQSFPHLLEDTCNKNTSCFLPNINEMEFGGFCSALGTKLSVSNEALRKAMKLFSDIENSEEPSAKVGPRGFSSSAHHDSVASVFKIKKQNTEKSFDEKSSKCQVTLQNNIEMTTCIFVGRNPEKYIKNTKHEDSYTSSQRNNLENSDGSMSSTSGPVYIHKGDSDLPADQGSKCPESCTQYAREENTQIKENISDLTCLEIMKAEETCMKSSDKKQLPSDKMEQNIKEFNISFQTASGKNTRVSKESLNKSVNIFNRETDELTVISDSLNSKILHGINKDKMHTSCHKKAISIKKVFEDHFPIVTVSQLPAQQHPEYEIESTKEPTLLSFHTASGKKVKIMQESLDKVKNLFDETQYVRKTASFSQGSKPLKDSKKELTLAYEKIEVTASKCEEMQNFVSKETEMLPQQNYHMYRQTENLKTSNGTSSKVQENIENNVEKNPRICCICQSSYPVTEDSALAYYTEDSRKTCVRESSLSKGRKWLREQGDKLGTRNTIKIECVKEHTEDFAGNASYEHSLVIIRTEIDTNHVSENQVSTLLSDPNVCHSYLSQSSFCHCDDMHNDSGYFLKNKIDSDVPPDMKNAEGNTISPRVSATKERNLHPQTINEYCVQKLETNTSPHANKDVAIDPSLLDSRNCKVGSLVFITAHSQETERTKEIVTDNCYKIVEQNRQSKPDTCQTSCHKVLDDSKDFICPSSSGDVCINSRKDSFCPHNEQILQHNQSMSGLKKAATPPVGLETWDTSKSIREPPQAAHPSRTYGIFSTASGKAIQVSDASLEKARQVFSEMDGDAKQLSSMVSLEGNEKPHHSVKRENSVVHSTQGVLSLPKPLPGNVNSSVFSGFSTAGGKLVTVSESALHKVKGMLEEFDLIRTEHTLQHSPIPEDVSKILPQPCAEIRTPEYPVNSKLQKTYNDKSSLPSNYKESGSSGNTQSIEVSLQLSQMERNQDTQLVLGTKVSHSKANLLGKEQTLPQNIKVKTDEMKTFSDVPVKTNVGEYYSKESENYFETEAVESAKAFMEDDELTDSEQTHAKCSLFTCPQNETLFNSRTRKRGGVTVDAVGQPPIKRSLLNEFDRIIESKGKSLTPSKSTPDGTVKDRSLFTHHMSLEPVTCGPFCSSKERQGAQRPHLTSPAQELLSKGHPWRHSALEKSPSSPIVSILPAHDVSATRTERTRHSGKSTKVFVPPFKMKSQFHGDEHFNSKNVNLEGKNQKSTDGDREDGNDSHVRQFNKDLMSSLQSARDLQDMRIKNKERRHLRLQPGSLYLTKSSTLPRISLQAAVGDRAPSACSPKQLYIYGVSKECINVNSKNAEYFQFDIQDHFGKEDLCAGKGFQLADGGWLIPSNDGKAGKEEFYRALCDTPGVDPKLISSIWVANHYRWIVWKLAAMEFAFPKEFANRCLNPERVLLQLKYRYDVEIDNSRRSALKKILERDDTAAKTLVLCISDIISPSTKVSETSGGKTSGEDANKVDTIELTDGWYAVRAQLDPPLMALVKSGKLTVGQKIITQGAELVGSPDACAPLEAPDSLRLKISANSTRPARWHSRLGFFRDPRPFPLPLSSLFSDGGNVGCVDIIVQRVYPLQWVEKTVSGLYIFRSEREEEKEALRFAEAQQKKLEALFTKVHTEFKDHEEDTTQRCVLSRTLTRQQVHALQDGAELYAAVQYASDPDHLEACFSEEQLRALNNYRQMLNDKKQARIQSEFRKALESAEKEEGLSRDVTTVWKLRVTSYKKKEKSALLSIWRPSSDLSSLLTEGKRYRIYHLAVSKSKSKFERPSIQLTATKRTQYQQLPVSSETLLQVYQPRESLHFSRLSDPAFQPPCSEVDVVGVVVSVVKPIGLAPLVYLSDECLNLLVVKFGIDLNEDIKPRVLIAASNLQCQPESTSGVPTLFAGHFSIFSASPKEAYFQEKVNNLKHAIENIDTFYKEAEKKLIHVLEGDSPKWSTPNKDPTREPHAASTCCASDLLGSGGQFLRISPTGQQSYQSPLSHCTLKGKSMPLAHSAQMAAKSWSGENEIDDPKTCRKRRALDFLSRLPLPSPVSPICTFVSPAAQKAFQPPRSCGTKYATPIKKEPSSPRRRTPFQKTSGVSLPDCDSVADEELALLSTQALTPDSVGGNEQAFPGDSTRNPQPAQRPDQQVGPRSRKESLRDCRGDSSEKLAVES", "experiment": "co-IP; anti-GFP nanobody beads on lysates of mES cells with homozygous Brca2-GFP alleles (full, ∆12, ∆12-14); HSF2BP blotted, fluorescent secondary antibodies; NETT buffer"}, "[4]": {"target": "the molecule itself", "experiment": "SEC-MALS; free ARM; Superdex 200 10/300 GL; 25 mM Tris-HCl pH 7.5, 250 mM NaCl, 5 mM beta-mercaptoethanol; 0.8-1 mg/ml in 100 ul"}, "[5]": {"target": "the molecule itself", "experiment": "SEC-MALS + other: SEC-SAXS; ARM with F15X; SEC-MALS on Superdex 200 10/300 GL, SEC-SAXS on Bio SEC-3; 25 mM Tris-HCl pH 7.5, 250 mM NaCl, 5 mM beta-mercaptoethanol; tetramer = two ARM dimers with two F15X"}, "ARM domain of HSF2BP [6]": {"target": "T2, ARM domain of HSF2BP", "experiment": "ITC of BRCA2 fragments with HSF2BP armadillo domain", "format": "binding", "conditions": "for ΔG / −TΔS / ΔH (±error): 293 K", "source_text": "as §1, §2, §3"}, "ARM domain of HSF2BP [7]": {"target": "T2, ARM domain of HSF2BP", "experiment": "2D NMR 1H-15N HSQC of 15N-labeled F0 with ARM", "format": "binding", "conditions": "15N-F0 100 μM, ARM 1:1, 950 MHz, 283 K; peaks of S2252-Q2342", "experimental": "For NMR analysis, ^15N-labeled or ^15N- and ^13C-labeled BRCA2 fragments were produced in E. coli BL21 DE3 Star cells grown in M9 medium containing either 0.5 g/l ^15NH4Cl or 0.5 g/l ^15NH4Cl and 2 g/l ^13C-glucose, respectively. […]\nThe ^15N/^13C-labeled F0 fragment was analyzed by 3D heteronuclear NMR. in order to assign its Hn, N, Cα, Cβ, and Co chemical shifts, and identify its binding site to HSF2BP. Therefore, 3D NMR HNCA, CBCACONH, HNCACB, HNCANNH, HNCO, and HNCACO experiments were performed on a 700 MHz Bruker AVANCE NEO spectrometer equipped with a triple resonance cryogenic TCI probe at 283 K. The data were processed using Topspin 4.0 (Bruker) and analyzed using CCPNMR 2.4[49]. […] For binding studies, 2D NMR ^1H-^15N HSQC experiments were recorded on a 3-mm-diameter sample tube containing the ^15N-labeled F0 at 100 μM in the absence and presence of the ARM domain at 100 μM, on a 950 MHz Bruker Avance III spectrometer equipped with a triple resonance cryogenic TCI probe at 283 K."}, "[8]": {"conditions": "pH 7.5, expt 1, error in brackets"}, "[9]": {"conditions": "pH 7.5, expt 2, error in brackets"}},
  "note": "Ends that are not written are not given here.",
  "data": [
    {"molecule": "DGTIKDRRLFMHHVSLEPITTVPFRTTKERQE [F15XΔ12]", "values": [
      {"measurement": "n (stoichiometry)", "setting": "HSF2BP FL; pH 7.5, expt 1", "result": 0.89},
      {"measurement": "ΔG", "setting": "HSF2BP FL; pH 7.5, expt 1", "result": -7.8, "unit": "kcal/mol"},
      {"measurement": "−TΔS", "setting": "HSF2BP FL; pH 7.5, expt 1", "result": -6.1, "unit": "kcal/mol"},
      {"measurement": "ΔH (±error)", "setting": "HSF2BP FL; [8]", "result": "−1.7 (0.3) kcal/mol"},
      {"measurement": "n (stoichiometry)", "setting": "HSF2BP FL; pH 7.5, expt 2", "result": 0.90},
      {"measurement": "ΔG", "setting": "HSF2BP FL; pH 7.5, expt 2", "result": -7.6, "unit": "kcal/mol"},
      {"measurement": "−TΔS", "setting": "HSF2BP FL; pH 7.5, expt 2", "result": -5.8, "unit": "kcal/mol"},
      {"measurement": "ΔH (±error)", "setting": "HSF2BP FL; [9]", "result": "−1.8 (0.2) kcal/mol"},
      {"measurement": "affinity (in words)", "setting": "HSF2BP FL; pH 7.5, listed as F15X∆12", "result": "in the micromolar range"},
      {"measurement": "affinity (in words)", "setting": "HSF2BP FL; pH 7.5, listed as motif 2", "result": "micromolar affinity"},
      {"measurement": "stoichiometry", "setting": "HSF2BP FL; BRCA2 peptide per HSF2BP", "result": 1},
      {"measurement": "affinity relative to F0 (weaker)", "setting": "HSF2BP FL; weaker than the affinity of HSF2BP for F0", "result": "1000 -fold"},
      {"measurement": "oligomerization of ARM upon binding", "setting": "ARM domain of HSF2BP [1]; listed as F15X∆12", "result": "does not oligomerize"},
      {"measurement": "oligomerization of ARM upon binding", "setting": "ARM domain of HSF2BP [1]; listed as motif 2", "result": "unable by itself to trigger oligomerization"}
    ]},
    {"molecule": "mouse BRCA2-∆12 in Hsf2bp^GFP/GFP Brca2^∆12/∆12 mES cells (from UniProt P97929 1-3329) (natural protein)", "values": [
      {"measurement": "percent loss of co-precipitation against wild-type BRCA2", "setting": "[2]", "result": "97 to 99", "unit": "%"}
    ]},
    {"molecule": "B1", "values": [
      {"measurement": "percent loss of co-precipitation against full-length BRCA2-GFP", "setting": "[3]", "result": 95, "unit": "%"}
    ]},
    {"molecule": "B2", "values": [
      {"measurement": "stoichiometry N", "setting": "[4]", "result": 2},
      {"measurement": "stoichiometry N", "setting": "[5]", "result": 4}
    ]},
    {"molecule": "B3", "values": [
      {"measurement": "ΔG", "setting": "ARM domain of HSF2BP [6]; pH 7.5, expt 1", "result": -10.8, "unit": "kcal/mol"},
      {"measurement": "−TΔS", "setting": "ARM domain of HSF2BP [6]; pH 7.5, expt 1", "result": -1.2, "unit": "kcal/mol"},
      {"measurement": "ΔH (±error)", "setting": "ARM domain of HSF2BP [6]; [8]", "result": "−9.6 (0.1) kcal/mol"},
      {"measurement": "ΔG", "setting": "ARM domain of HSF2BP [6]; pH 7.5, expt 2", "result": -10.5, "unit": "kcal/mol"},
      {"measurement": "−TΔS", "setting": "ARM domain of HSF2BP [6]; pH 7.5, expt 2", "result": -1.1, "unit": "kcal/mol"},
      {"measurement": "ΔH (±error)", "setting": "ARM domain of HSF2BP [6]; [9]", "result": "−9.4 (0.2) kcal/mol"},
      {"measurement": "affinity relative to F0", "setting": "ARM domain of HSF2BP [6]; compared with the affinity measured between ARM and F0", "result": "about threefold higher"},
      {"measurement": "decrease of HSQC peak intensities", "setting": "ARM domain of HSF2BP [7]", "result": "more than 60%"}
    ]}
  ]
}
